Among the data in ChEMBL document CHEMBL3046159, “Synthesis of some 3,4-disubstituted-6,7-dihydro-imidazo[2,1-b][1,3]thiazole and 3,4-disubstituted-7,8-dihydro-6H-imidazo[2,1-b][1,3]thiazine derivatives and evaluation of their cytotoxicities against F2408 and 5RP7 cells” (Med Chem Res, 2008) are Activity, IC50 and viability values, retold here.

Values after ≈ are worked out from the molar mass of the structure shown. Active and inactive are the calls of the source. The rule behind the calls is not given here.

Data set [1] in a line: Cytotoxicity against Rattus norvegicus (rat) F2408 cells at 0.0256 ug/ml by MTT assay. The format is cell-based.
The nature of data set [2]: Cytotoxicity against Rattus norvegicus (rat) F2408 cells at 0.0128 ug/ml by MTT assay. The format is cell-based.
Data set [3] in a line: Cytotoxicity against Rattus norvegicus (rat) 5RP7 cells at 0.0256 ug/ml by MTT assay. The format is functional. A general note: Formazan colour is commonly taken as a measure of viable cells.
The nature of data set [4]: Cytotoxicity against Rattus norvegicus (rat) F2408 cells at 0.064 ug/ml by MTT assay. The format is cell-based.
Data set [5] can be described thus: Cytotoxicity against Rattus norvegicus (rat) F2408 cells after 24 hr by MTT assay. The format is cell-based. Particulars: F2408, 24 h.
Data set [6] is described as follows: Cytotoxicity against Rattus norvegicus (rat) 5RP7 cells at 0.064 ug/ml by MTT assay. The format is functional.
Data set [7] in a line: Cytotoxicity against Rattus norvegicus (rat) 5RP7 cells after 24 hr by MTT assay. The format is functional, cell-based. Particulars: 5RP7, 24 h.
A short description of data set [8]: Cytotoxicity against Rattus norvegicus (rat) 5RP7 cells at 0.0128 ug/ml by MTT assay. The format is functional.
Data set [9] can be described thus: Cytotoxicity against Rattus norvegicus (rat) F2408 cells at low concentration after 24 hr by MTT assay. The format is cell-based. Particulars: f2408, 24 h.
For data set [10], the system named is 5RP7. Put plainly: Cytotoxicity against Rattus norvegicus (rat) 5RP7 cells at low concentration after 24 by MTT assay. The format is functional, cell-based.
Data set [11] relates to 5RP7. Briefly: Cytotoxicity against Rattus norvegicus (rat) 5RP7 cells at high concentration after 48 hr by MTT assay. The format is functional, cell-based.
Data set [12] can be described thus: Cytotoxicity against Rattus norvegicus (rat) F2408 cells after 48 hr by MTT assay. The format is cell-based. The settings on record: f2408, 48 h.
A short description of data set [13]: Cytotoxicity against Rattus norvegicus (rat) F2408 cells assessed as cell viability at 0.0256 to 0.064 ug/ml after 24 hr by MTT assay. The format is cell-based. Particulars: read-out: Activity.
Data set [14] is described as follows: Cytotoxicity against Rattus norvegicus (rat) 5RP7 cells assessed as cell viability at 0.0128 ug/ml after 24 hr by MTT assay. The format is functional. The settings on record: 5RP7, 24 h, read-out: Activity.
Data set [15] in a line: Cytotoxicity against Rattus norvegicus (rat) F2408 cells assessed as cell viability at 0.0128 ug/ml after 24 hr by MTT assay. The format is cell-based. Particulars: read-out: Activity.

One may read the IC50 as the concentration that gives 50% inhibition. A high value points to weaker potency in that assay. Consider `c1ccc(-c2nc3n(c2-c2ccccc2)CCCS3)cc1`, for which the Activity is given as 21% in [1]; 20% in data set [2]; 28% in data set [3]; 18% in data set [4]; 21% in data set [6]; 30% in data set [8]. Further, the results for the concentration for half-maximal inhibition (IC50) in data set [5] and in [7] were 10 µg/mL (≈ 34.2 µM) and 2.9 µg/mL (≈ 9.92 µM), respectively.

For the compound `Cc1ccc(-c2nc3n(c2-c2ccc(C)cc2)CCS3)cc1`, the Activity entry in [9] is “Non-toxic”. The IC50 is 15 µg/mL (≈ 49 µM) in data set [5] and 18 µg/mL (≈ 58.7 µM) in data set [7]. Besides, the result in the data set on 5RP7 [10] was Active.

Consider `COc1ccc(-c2nc3n(c2-c2ccc(OC)cc2)CCS3)cc1`, for which, in [9], the Activity result is reported as “Non-toxic”. Also, the IC50 in data set [5] was found to be 29 µg/mL (≈ 85.7 µM); in data set [7] it was 22 µg/mL (≈ 65 µM). Also, in the data set with 5RP7 [10], the result was Active.

Regarding `c1ccc(-c2nc3n(c2-c2ccccc2)CCS3)cc1`, the result in the data set on 5RP7 [11] was Active. Moreover, the 50% inhibitory concentration (IC50) in [5] came out at 9.5 µg/mL (≈ 34.1 µM); in data set [7] it was 15 µg/mL (≈ 53.9 µM). In addition, the Activity entry in data set [12] is “Toxic”.

With `Cc1ccc(-c2nc3n(c2-c2ccc(C)cc2)CCCS3)cc1`, the viability at 24 h in data set [13] was 100%. Moreover, the concentration for half-maximal inhibition (IC50) in data set [5] was determined as 12 µg/mL (≈ 37.4 µM); in data set [7], 4.6 µg/mL (≈ 14.4 µM). The viability at 0.0128 µg/mL in data set [14] stood at 87%. For the same compound, the viability at 24 h, 0.0128 ug/ml in data set [15] was 100%.
